Measurements reported in the kinase profiling compilation of Christmann-Franck et al. (2016).

Assays:
Test in all cases: radiometric filter-binding kinase assay, Kinase HotSpot
Conditions in all cases: compound 0.5 µM; ATP 10 µM
RPS6KA2 KD1 KD2 (human) = RPS6KA2 KD1 KD2 (human) (UniProt Q15349)
CDC42BPA (human) = CDC42BPA (human) (UniProt Q5VT25)
MAPKAPK3 (human) = MAPKAPK3 (human) (UniProt Q16644)
KIT (human) = KIT (human) (UniProt P10721)
INSR (human) = INSR (human) (UniProt P06213)
HIPK3 (human) = HIPK3 (human) (UniProt Q9H422)
DYRK1B (human) = DYRK1B (human) (UniProt Q9Y463)
ABL2 (human) = ABL2 (human) (UniProt P42684)
FLT1 (human) = FLT1 (human) (UniProt P17948)
RET (human) = RET (human) (UniProt P07949)
SRPK1 (human) = SRPK1 (human) (UniProt Q96SB4)
EPHA8 (human) = EPHA8 (human) (UniProt P29322)
MUSK (human) = MUSK (human) (UniProt O15146)
TAOK3 (human) = TAOK3 (human) (UniProt Q9H2K8)
SRC (human) = SRC (human) (UniProt P12931)
Sequence of SRC (human) (P12931 whole entry, looked up): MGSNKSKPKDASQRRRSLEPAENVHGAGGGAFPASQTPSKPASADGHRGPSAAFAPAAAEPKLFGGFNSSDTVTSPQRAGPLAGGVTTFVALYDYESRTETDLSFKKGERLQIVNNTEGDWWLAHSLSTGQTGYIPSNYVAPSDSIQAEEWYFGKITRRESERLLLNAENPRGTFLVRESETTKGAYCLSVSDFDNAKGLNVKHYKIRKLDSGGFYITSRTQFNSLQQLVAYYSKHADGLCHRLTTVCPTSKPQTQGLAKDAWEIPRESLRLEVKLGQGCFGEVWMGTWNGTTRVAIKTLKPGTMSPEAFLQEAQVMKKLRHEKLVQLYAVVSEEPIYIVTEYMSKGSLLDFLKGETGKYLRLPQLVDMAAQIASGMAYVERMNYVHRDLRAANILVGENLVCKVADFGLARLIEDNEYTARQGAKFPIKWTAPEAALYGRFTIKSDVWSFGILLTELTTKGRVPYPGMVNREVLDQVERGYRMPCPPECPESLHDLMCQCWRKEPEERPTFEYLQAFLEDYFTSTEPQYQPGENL

CHUK (human) = CHUK (human) (UniProt O15111)
ULK2 (human) = ULK2 (human) (UniProt Q8IYT8)
PHKG1 (human) = PHKG1 (human) (UniProt Q16816)
Sequence of PHKG1 (human) (Q16816 whole entry, looked up): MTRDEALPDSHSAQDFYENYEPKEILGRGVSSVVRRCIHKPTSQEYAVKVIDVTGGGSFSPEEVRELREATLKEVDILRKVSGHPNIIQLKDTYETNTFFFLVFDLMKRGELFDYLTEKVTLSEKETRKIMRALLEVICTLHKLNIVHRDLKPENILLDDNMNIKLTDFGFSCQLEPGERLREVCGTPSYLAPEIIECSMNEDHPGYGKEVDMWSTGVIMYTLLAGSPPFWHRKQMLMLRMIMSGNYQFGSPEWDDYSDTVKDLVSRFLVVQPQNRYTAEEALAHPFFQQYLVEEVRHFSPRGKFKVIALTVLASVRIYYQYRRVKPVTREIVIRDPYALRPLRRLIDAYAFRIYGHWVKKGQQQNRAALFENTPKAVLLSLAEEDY

MAP3K8 (human) = MAP3K8 (human) (UniProt P41279)
Sequence of MAP3K8 (human) (P41279 whole entry, looked up): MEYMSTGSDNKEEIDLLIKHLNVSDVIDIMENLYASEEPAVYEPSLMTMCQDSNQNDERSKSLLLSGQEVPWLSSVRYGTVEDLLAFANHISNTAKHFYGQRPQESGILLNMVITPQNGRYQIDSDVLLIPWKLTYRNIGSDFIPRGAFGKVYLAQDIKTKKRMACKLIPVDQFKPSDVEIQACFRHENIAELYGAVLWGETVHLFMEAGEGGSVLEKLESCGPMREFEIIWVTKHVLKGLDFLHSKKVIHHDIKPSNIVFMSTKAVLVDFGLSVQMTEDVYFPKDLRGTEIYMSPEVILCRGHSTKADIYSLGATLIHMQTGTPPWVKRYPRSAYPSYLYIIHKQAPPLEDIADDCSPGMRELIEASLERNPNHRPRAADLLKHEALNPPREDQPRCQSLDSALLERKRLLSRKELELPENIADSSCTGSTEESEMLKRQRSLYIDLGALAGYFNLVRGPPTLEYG

LCK (human) = LCK (human) (UniProt P06239)
Sequence of LCK (human) (P06239 whole entry, looked up): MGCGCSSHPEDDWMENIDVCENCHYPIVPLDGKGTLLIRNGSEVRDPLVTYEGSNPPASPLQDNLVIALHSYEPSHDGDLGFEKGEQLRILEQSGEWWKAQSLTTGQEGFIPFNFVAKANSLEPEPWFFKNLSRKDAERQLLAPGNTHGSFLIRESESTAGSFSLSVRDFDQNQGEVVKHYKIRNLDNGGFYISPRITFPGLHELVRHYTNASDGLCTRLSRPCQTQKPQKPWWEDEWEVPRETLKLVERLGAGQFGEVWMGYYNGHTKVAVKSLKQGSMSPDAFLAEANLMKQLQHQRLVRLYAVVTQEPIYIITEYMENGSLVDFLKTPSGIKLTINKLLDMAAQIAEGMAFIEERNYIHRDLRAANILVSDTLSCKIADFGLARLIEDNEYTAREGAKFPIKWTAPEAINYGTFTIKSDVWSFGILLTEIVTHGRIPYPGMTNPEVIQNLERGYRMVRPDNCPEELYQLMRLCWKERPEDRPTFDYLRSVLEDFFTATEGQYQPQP

TGFBR2 (human) = TGFBR2 (human) (UniProt P37173)
PRKG2 (human) = PRKG2 (human) (UniProt Q13237)
CDK3 CCNE1 (human) = CDK3 CCNE1 (human) (UniProt Q00526+P24864)
FGFR4 (human) = FGFR4 (human) (UniProt P22455)
TBK1 (human) = TBK1 (human) (UniProt Q9UHD2)
DAPK1 (human) = DAPK1 (human) (UniProt P53355)
IKBKB (human) = IKBKB (human) (UniProt O14920)
CSK (human) = CSK (human) (UniProt P41240)
AKT2 (human) = AKT2 (human) (UniProt P31751)
Sequence of AKT2 (human) (P31751 whole entry, looked up): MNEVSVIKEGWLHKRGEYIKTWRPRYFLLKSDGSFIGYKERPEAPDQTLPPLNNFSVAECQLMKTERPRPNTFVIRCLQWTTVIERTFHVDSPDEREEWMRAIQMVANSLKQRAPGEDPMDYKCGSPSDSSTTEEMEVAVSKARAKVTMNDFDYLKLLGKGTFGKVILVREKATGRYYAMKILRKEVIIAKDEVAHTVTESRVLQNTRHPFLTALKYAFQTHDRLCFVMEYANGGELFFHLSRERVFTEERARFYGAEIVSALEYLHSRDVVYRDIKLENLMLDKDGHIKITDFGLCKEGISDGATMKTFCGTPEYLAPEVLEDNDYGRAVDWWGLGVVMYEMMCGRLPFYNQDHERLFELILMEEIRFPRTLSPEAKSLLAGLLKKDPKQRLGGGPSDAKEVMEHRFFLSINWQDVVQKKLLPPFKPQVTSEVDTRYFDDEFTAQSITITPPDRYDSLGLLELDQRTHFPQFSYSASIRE

PAK2 (human) = PAK2 (human) (UniProt Q13177)
Sequence of PAK2 (human) (Q13177 whole entry, looked up): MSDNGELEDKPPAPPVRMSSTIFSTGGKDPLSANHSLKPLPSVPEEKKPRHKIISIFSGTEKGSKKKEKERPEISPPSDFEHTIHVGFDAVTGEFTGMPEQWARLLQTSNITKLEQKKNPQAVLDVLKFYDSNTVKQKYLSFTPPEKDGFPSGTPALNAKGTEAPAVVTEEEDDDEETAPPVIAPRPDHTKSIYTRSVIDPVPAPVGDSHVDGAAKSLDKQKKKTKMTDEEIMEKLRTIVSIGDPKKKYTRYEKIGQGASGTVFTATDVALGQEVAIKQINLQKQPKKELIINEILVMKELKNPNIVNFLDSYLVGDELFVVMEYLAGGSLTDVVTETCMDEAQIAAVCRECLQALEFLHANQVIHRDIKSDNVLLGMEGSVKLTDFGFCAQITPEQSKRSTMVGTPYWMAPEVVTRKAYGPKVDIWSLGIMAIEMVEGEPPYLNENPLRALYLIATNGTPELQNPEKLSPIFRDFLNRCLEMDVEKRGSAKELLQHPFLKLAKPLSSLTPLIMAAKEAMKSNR

PAK1 (human) = PAK1 (human) (UniProt Q13153)
PKN1 (human) = PKN1 (human) (UniProt Q16512)
VRK1 (human) = VRK1 (human) (UniProt Q99986)
MAP4K5 (human) = MAP4K5 (human) (UniProt Q9Y4K4)
NEK9 (human) = NEK9 (human) (UniProt Q8TD19)
RPS6KA1 KD1 KD2 (human) = RPS6KA1 KD1 KD2 (human) (UniProt Q15418)
STK3 (human) = STK3 (human) (UniProt Q13188)
CAMK1 (human) = CAMK1 (human) (UniProt Q14012)
MAPK11 (human) = MAPK11 (human) (UniProt Q15759)
Sequence of MAPK11 (human) (Q15759 whole entry, looked up): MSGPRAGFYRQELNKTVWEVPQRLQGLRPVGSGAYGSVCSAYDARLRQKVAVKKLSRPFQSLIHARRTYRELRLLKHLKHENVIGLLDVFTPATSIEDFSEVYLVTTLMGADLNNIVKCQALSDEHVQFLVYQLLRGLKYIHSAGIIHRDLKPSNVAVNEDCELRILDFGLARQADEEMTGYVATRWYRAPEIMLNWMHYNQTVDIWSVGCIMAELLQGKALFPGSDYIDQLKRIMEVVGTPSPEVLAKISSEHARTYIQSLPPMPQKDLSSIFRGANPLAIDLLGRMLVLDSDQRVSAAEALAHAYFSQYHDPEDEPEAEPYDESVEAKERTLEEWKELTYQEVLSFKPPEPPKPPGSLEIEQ

RPS6KB1 (human) = RPS6KB1 (human) (UniProt P23443)
NEK6 (human) = NEK6 (human) (UniProt Q9HC98)
Sequence of NEK6 (human) (Q9HC98 whole entry, looked up): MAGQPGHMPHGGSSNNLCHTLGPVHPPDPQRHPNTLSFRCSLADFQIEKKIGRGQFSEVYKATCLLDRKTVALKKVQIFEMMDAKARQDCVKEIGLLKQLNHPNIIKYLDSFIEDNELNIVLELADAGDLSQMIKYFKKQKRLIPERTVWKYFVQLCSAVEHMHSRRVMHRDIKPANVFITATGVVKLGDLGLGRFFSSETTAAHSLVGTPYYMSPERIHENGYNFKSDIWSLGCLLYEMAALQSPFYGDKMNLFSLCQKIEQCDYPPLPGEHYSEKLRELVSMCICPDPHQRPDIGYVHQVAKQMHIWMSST

ACVR1 (human) = ACVR1 (human) (UniProt Q04771)

Sequence of INSR (human) (P06213 whole entry, looked up): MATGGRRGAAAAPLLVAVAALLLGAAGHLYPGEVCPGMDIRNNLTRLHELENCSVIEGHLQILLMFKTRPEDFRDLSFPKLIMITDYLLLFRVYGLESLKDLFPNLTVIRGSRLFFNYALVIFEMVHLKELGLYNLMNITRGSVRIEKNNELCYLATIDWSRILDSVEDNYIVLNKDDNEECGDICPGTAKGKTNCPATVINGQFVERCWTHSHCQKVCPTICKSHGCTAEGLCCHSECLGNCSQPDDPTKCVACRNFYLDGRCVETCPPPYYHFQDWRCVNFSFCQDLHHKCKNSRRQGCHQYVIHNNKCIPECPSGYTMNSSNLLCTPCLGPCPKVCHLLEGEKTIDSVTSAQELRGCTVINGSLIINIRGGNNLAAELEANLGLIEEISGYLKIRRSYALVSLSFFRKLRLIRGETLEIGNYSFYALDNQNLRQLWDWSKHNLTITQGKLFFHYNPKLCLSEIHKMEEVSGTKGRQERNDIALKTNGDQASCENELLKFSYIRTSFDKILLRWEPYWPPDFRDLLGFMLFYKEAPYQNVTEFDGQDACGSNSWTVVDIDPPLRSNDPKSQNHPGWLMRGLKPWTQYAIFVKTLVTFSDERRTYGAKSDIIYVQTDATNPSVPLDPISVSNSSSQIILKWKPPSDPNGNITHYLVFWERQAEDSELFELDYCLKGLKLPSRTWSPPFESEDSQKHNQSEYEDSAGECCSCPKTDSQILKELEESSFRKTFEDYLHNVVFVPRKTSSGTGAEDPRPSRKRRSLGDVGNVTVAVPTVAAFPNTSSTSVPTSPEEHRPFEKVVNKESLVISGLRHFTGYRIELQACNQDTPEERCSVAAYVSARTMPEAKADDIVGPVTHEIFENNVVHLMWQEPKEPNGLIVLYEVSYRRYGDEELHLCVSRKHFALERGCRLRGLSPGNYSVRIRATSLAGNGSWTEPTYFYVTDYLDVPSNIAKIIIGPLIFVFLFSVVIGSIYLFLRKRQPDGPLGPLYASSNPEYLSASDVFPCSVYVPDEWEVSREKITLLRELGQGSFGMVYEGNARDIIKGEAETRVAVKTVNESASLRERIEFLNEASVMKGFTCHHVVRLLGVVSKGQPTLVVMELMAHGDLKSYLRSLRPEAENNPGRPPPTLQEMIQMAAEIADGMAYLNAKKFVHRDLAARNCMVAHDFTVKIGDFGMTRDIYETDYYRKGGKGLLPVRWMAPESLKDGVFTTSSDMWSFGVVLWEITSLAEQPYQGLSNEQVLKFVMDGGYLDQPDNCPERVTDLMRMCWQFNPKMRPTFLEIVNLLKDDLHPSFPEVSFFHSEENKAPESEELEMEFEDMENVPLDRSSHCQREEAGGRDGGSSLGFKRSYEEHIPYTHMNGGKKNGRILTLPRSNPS

O=C1Nc2ccccc2/C1=C1/Nc2ccccc2/C1=N\OCCC(O)CO (centres undefined)
residual activity (RPS6KA2 KD1 KD2 (human)): 12.1%
residual activity (CDC42BPA (human)): 88.6%
residual activity (MAPKAPK3 (human)): 98.9%
residual activity (KIT (human)): 44.8%
residual activity (INSR (human)): 44.9%
residual activity (HIPK3 (human)): 66.2%
residual activity (DYRK1B (human)): 65.1%
residual activity (ABL2 (human)): 38.5%
residual activity (FLT1 (human)): 51%
residual activity (RET (human)): 1.22%
residual activity (SRPK1 (human)): 71.3%
residual activity (EPHA8 (human)): 91.9%
residual activity (MUSK (human)): 58%
residual activity (TAOK3 (human)): 55.4%
residual activity (SRC (human)): 22.6%
residual activity (CHUK (human)): 96.6%
residual activity (ULK2 (human)): 102%
residual activity (PHKG1 (human)): 8.06%
residual activity (MAP3K8 (human)): 123%
residual activity (LCK (human)): 29.7%
residual activity (TGFBR2 (human)): 119%
residual activity (PRKG2 (human)): 28.1%
residual activity (CDK3 CCNE1 (human)): 65.2%
residual activity (FGFR4 (human)): 65.7%
residual activity (TBK1 (human)): 29.9%
residual activity (DAPK1 (human)): 80.9%
residual activity (IKBKB (human)): 90.5%
residual activity (CSK (human)): 86.3%
residual activity (AKT2 (human)): 90.1%
residual activity (PAK2 (human)): 82.1%
residual activity (PAK1 (human)): 71.3%
residual activity (PKN1 (human)): 49.9%
residual activity (VRK1 (human)): 88.3%
residual activity (MAP4K5 (human)): 15.5%
residual activity (NEK9 (human)): 73.6%
residual activity (RPS6KA1 KD1 KD2 (human)): 8.85%
residual activity (STK3 (human)): 4.81%
residual activity (CAMK1 (human)): 76%
residual activity (MAPK11 (human)): 95.2%
residual activity (RPS6KB1 (human)): 47.8%
residual activity (NEK6 (human)): 96.3%
residual activity (ACVR1 (human)): 199%

CC(=O)O/N=C1\C(=C2\C(=O)Nc3cc(Br)ccc32)Nc2ccccc21
residual activity (RPS6KA2 KD1 KD2 (human)): 51%
residual activity (CDC42BPA (human)): 85.8%
residual activity (MAPKAPK3 (human)): 105%
residual activity (KIT (human)): 62.3%
residual activity (INSR (human)): 94.8%
residual activity (HIPK3 (human)): 76.7%
residual activity (DYRK1B (human)): 96%
residual activity (ABL2 (human)): 26.4%
residual activity (FLT1 (human)): 98.6%
residual activity (RET (human)): 6.58%
residual activity (SRPK1 (human)): 96.7%
residual activity (EPHA8 (human)): 96.3%
residual activity (MUSK (human)): 68.5%
residual activity (TAOK3 (human)): 72.4%
residual activity (SRC (human)): 26.2%
residual activity (CHUK (human)): 98.3%
residual activity (ULK2 (human)): 92.2%
residual activity (PHKG1 (human)): 67.7%
residual activity (MAP3K8 (human)): 104%
residual activity (LCK (human)): 53.5%
residual activity (TGFBR2 (human)): 132%
residual activity (PRKG2 (human)): 91.4%
residual activity (CDK3 CCNE1 (human)): 36.3%
residual activity (FGFR4 (human)): 82.6%
residual activity (TBK1 (human)): 78.5%
residual activity (DAPK1 (human)): 86.8%
residual activity (IKBKB (human)): 92.4%
residual activity (CSK (human)): 75.5%
residual activity (AKT2 (human)): 113%
residual activity (PAK2 (human)): 103%
residual activity (PAK1 (human)): 93.6%
residual activity (PKN1 (human)): 96.1%
residual activity (VRK1 (human)): 80.7%
residual activity (MAP4K5 (human)): 24.1%
residual activity (NEK9 (human)): 86.7%
residual activity (RPS6KA1 KD1 KD2 (human)): 69%
residual activity (STK3 (human)): 39.5%
residual activity (CAMK1 (human)): 102%
residual activity (MAPK11 (human)): 83.4%
residual activity (RPS6KB1 (human)): 95.4%
residual activity (NEK6 (human)): 100%
residual activity (ACVR1 (human)): 102%
